Counter-ions that a name gives are not always drawn.

Consider three compounds from patent US20240150347A1, “INHIBITING CYCLIC AMP-RESPONSIVE ELEMENT-BINDING PROTEIN (CREB) BINDING PROTEIN (CBP)” (FORMATherapeutics,Inc., priority 2020, published 2024).

The test system of data set [1] is human kinases and disease-relevant mutant variants. Kind of data set: KINOMEscan screen for kinase inhibition. The data set is classed as binding.
A further data set deals with panel of 10 bromodomains. Kind of data set: AlphaScreen panel of 10 BRD. The data set is classed as binding. Conditions: 10 BRD of various branches of the bromodomain tree. A general note: Bead proximity is the source of the signal in Alpha formats.
A short description of data set [2]: Dynamic vapor sorption (hygroscopicity). The data set is classed as physicochemical. Conditions: relative humidity of up to 80%, dynamic vapor sorption isotherm plots. The text has this:
Dynamic Vapor Sorption (DVS) data were collected with a SMS DVS Intrinsic from Surface Measurement Systems.

As for `COC(=O)N1c2ccc3c(nc([C@H](O)c4cc(F)ccc4OC)n3[C@@H]3CCC[C@@H](C(=O)O)C3)c2CC[C@@H]1C` [Compound 1, (1R,3R)-3-[(7S)-2-[(R)-(5-fluoro-2-methoxyphenyl)(hydroxy)methyl]-6-(methoxycarbonyl)-7-methyl-3H,6H,7H,8H,9H-imidazo[4,5-f]quinolin-3-yl]cyclohexane-1-carboxylic acid], in data set [1], the “binding affinity for human kinases and disease-relevant mutant variants” value was “no to low binding affinity”. Moreover, the “activity against panel of 10 bromodomains” value in the data set with panel of 10 bromodomains was “inactive against 8”.

In the case of `COC(=O)N1c2ccc3c(nc([C@H](O)c4cc(F)ccc4OC)n3[C@@H]3CCC[C@@H](C(=O)O)C3)c2CC[C@@H]1C` [HCl type A salt, (1R,3R)-3-((S)-2-((R)-(5-fluoro-2-methoxyphenyl)(hydroxy)methyl)-6-(methoxycarbonyl)-7-methyl-6,7,8,9-tetrahydro-3H-imidazo [4,5-f]quinolin-3-yl)cyclohexane-1-carboxylic acid], the water uptake in data set [2] is on record as 6.3%.

As for `COC(=O)N1c2ccc3c(nc([C@H](O)c4cc(F)ccc4OC)n3[C@@H]3CCC[C@@H](C(=O)O)C3)c2CC[C@@H]1C` [type B p-toluenesulfonic acid addition salt], the water uptake in data set [2] worked out at 2.1%.
